One compound from patent publication US20240398725A1, “NANOPARTICLES FOR CANCER TREATMENT” (priority 2021, published 2024) can be followed below.

The structures appear in SMILES notation. Where only a bound is given, the exact number is not on record here.

As a reminder, the IC50 is the concentration that inhibits the measured activity by half.

The subject of test [1] is SW872-DXR. As to the kind of experiment: MTS assay, doxorubicin IC50 in doxorubicin-resistant SW872-DXR. It counts as cell-based. The note with it: Homo sapiens. From the text:
(§1) The dedifferentiated liposarcoma cell line (SW872) is one of the earliest STS model systems that has been extensively studied in preclinical investigations (Dodd 2010, Stratford 2012).
(§2) The SW872-DXR model was derived from the commercial cell line SW872. The resistance to doxorubicin was initiated in 2D cultures, by adding increased concentrations of doxorubicin every 2 weeks, starting from the IC50 concentrations of doxorubicin of the “parental” cell line SW872. The resistance of this cell line was verified by 3-(4,5-dimethylthiazol-2-yl)-5-(3-carboxymethoxyphenyl)-2-(4-sulfophenyl)-2H-tetrazolium (MTS) assay.

The test system of test [2] is SW872. As to the kind of experiment: MTS assay, doxorubicin IC50 in parental cell line SW872. Type of test: cell-based. The note with it: Homo sapiens.
Description: as §1, §2
In general terms: Tetrazolium assays rely on reduction of a dye to a coloured formazan, in cell work by metabolically active cells.

`COc1cccc2c1C(=O)c1c(O)c3c(c(O)c1C2=O)C[C@@](O)(C(=O)CO)C[C@@H]3O[C@H]1C[C@H](N)[C@H](O)[C@H](C)O1` [doxorubicin]: the figures for the IC50 in test [1] and in test [2] were greater than 1000 nM and roughly 200 nM, respectively.
